One substance from patent publication US20060293264A1, “STAT3 decoy oligonucleotides and uses therefor” (priority 2004, published 2006) can be followed below.

The data set deals with Bcl-xL. As to the kind of experiment: Bcl-xL expression by immunoblotting in SCCHN cells in vitro. The format is cell-based, human. As to conditions: 1483 cells; 25 μM, 6 days; p<0.0001. Here is the method:
Immunoblotting. Whole cell extracts were mixed with 2× sodium dodecyl sulfate (SDS) sample buffer (125 mmol/L Tris-HCL, pH 6.8; 4% SDS; 20% glycerol; 10% 2 mercaptoethanol) at 1:1 ratio and were heated for 5 min at 100° C. Proteins (50 μg/lane) were separated by 12.5% SDS-PAGE and transferred onto a nitrocellulose membrane (MSI; Westboro, Mass). Prestained molecular weight markers (GIBCO BRL; Gaithersburg, MD) were included in each gel. Membranes were blocked for 30 min in Tris-buffered saline (TBS: 10 mmol/L Tris-HCL, pH 7.5 and 150 mmol/L NaCl) with 0.5% Tween-20 (TBST) and 5% BSA. […] Quantification of Cyclin D1 and Bcl-xL was performed by using a Molecular Dynamics Personal Densitometer SI and IMAGEQUANT software (Image Products International, Chantilly, Va.). Immunoblotting bands were quantified by densitometry and the Molecular Analyst software (AlphaDigidoc 1000, Alpho-Innotech) with normalization of each band to their corresponding loading control (Xi, S., et al. J Biol Chem, 278: 31574-31583, 2003). […]
As shown above, treatment with the STAT3 decoy abrogates STAT3 target gene expression in vivo. […] The data were analyzed using parametric analysis of variance of a two-way factorial design. […]

Turning to “STAT3 decoy (sense CATTTCCCGTAAATC; antisense GATTTACGGGAAATG; phosphorothioate modified, further chemistry not given here; listed as Homo sapiens)”, the “Bcl-xL expression compared with mutant control decoy” value is listed as “decreased”.
